# Assay results from patent US11299496B2, “Ligands for alpha-7 nicotinic acetylcholine receptors and methods of treating neurological and inflammatory conditions” (Northeastern University, priority 2014, dated 2022).
# Legend:
# [1] = system: formalin-injected mice; assay: Formalin test (intraplantar formalin, paw licking, paw edema); assay type: in vivo, mouse
# Method: A formalin test was carried out in an open plexiglas cage, with a mirror placed at a 45° angle behind the cage to allow an unobstructed view of the paws. Mice were allowed to acclimate for 15 min in the test cage prior to injection. Each animal was injected intraplantar with 20 μl of 2.5% formalin to the right hindpaw. Each mouse was then immediately placed in the test cage. Up to two mice at one time were observed during 0 to 5 min after injection (phase 1) and during 20-45 min post injection (phase 2). The period between the two phases of nociceptive responding is generally considered to be a phase of weak activity. The amount of time spent licking the injected paw was recorded with a digital stopwatch.
# Further, the antinociceptive activity of drugs in phase II of the formalin test and their anti-allodynic response in the CCI model was tested. Mice received vehicle or methyllycaconatine (MLA, 10 mg/kg) prior to vehicle or an ED84 dose of the ago-PAM/PAM (determined from a dose-response experiment using the formalin intraplantar injection model). […] The MLA results were confirmed by testing the ED84 dose of the test compounds in the alpha-7 KO and wild type mice. Finally, it was tested whether tolerance develops to the antinociceptive effects of alpha-7 nAChR ago-PAM following 7 days of repeated injections of its ED84 dose. Mice were given the following treatments: vehicle (7 days of vehicle administration); acute alpha-7 nAChR test compounds (6 days of vehicle administration followed by alpha-7 nAChR ago-PAM on the last day); and repeated alpha-7 nAChR test compounds (7 days of alpha-7 nAChR PAM or ago-PAM).
# [2] = system: CCI mice; assay: Chronic constriction injury (CCI) model, mechanical allodynia (von Frey); assay type: in vivo, mouse
# Method: Mice were anesthetized with pentobarbital (45 mg/kg, i.p.). An incision was made just below the hipbone, parallel to the sciatic nerve. The right common sciatic nerve was exposed at the level proximal to the sciatic trifurcation, and a nerve segment 3-5 mm long was separated from surrounding connective tissue. Two loose ligatures with 6-0 silk suture were made around the nerve with a 1.0-1.5 mm interval between them. Muscles were closed with suture thread and the wound with wound clips. […] Any suture that remained after two weeks was removed from the healed surgical wound. Mechanical allodynia (von Frey test) was measured before and after drug injections.
# The antiallodynic effects of test compounds were assessed in three experiments consisting of CCI mice and sham control mice. […] The anti-allodynic effects of alpha-7 nAChRs PAMs and ago-PAMs were tested (four doses and vehicle control, N=10 mice/group, administered i.p.) in the CCI model. Mice were assessed for mechanical allodynia 2 weeks after the CCI surgery. All these studies will be conducted in blinded manner. CCI and sham control mice received two conditioning sessions per day (vehicle in the morning and drug in the afternoon) over the course of 3 days, and were tested for a place preference on day 7 without any injections.
# Pain behavioral data are presented as mean±S.E.M. (see FIGS. 5A and 5B). Statistical analysis was performed using the t-test or two-way analysis of variance test, followed by the post-hoc Bonferroni's test. All differences were considered significant at p<0.05, and significant differences are shown with asterisks in FIGS. 5A and 5B. ED50 values with 95% confidence limits (CL) were calculated by unweighted least-squares linear regression.
smiles,measurement,setting,value
"NS(=O)(=O)c1ccc2c(c1)[C@H]1C=CC[C@H]1[C@@H](c1ccc(Br)cc1)N2 [Compound 1, (3aR,4S,9bS)-4-(4-bromophenyl)-3a,4,5,9b-tetrahydro-3H-cyclopenta[c]quinoline-8-sulfonamide]",activity in alpha-7 nAChR knockout mice,[1]; FIG. 3D,inactive
same,effect of GAT107 after MLA,"[1]; MLA 10 mg/kg prior, FIG. 3C",reversed the effects of GAT107
same,nociceptive behavior of formalin phase II,"[1]; given i.v., FIG. 3A",dose-dependently and significantly block the nociceptive behavior of formalin phase II
same,nociceptive behavior of formalin phase II,"[1]; given orally, FIG. 3B",dose-dependently and significantly block the nociceptive behavior of formalin phase II
same,paw edema induced by formalin intraplantar injection,"[1]; mouse, in vivo",reduced the paw edema
same,anti-allodynic effect in CCI mice,"[2]; i.p., FIG. 5A",significant anti-allodynic effect
same,effect on sham mice,[2]; sham control mice,no effect on sham mice
